Experimental data as given in patent US6589993B2, “Treating vancomycin-intermediates and multiresistant staphylococci infection with thiamphenicol or a salt thereof” (Zambon Group S.p.A., priority 2000, dated 2003).
Where two headings read alike, the source gives them in different places.

Tests used:
[1] = test system: S. aureus vancomycin-intermediates (VISA) Met-R strains; test: MIC determination (NCCLS broth microdilution), VISA Met-R strains; assay type: cell-based, Staphylococcus aureus; conditions: for MIC: antibiotype Oxa, Cip, Clin, Ery
Protocol: (§1) The MICs of thiamphenicol and of other antibiotics was obtained by using the method proposed by NCCLS (National Committee for Clinical Laboratory Standards, 1999).
(§2) Various antibiotic concentrations were added to bacteria in exponental growth (final inoculum 5×10^5 […]); dilution in Mb (cation-supplemented Mueller-Hinton broth) and distribution on a microplate by using an automatic diluting machine Biomek 1000 (Beckman, USA). MHb charged with 2% NaCl was used to test the methicillin activity.
(§3) The antibiotic concentration which hinders a visible growth after 18-24 hours of incubation at 37° C., was registered as MIC.
(§4) S. aureus ATCC 29213 was used as quality control strain.

[2] = test system: S. aureus Met-R multiresistant strains; test: MIC determination (NCCLS broth microdilution), methicillin-resistant multiresistant S. aureus strains; assay type: cell-based, Staphylococcus aureus; conditions: for % susceptible at breakpoint: NCCLS (1999) breakpoints; for MIC / MIC50 / MIC90: Staphylococcus aureus; for MIC: antibiotype Oxa, Ery, read-out: MIC; for MIC50: read-out: MIC 50%; for MIC90: read-out: MIC 90%
Protocol: as §1, §2, §3, §4

[3] = Staphylococcus aureus, Strain 51 VISA, read-out: MIC
[4] = Strain 30, Cip, Clin, Gm, SXT, Dox
[5] = Strain 32, Cip, Clin, Gm, SXT, Rif
[6] = Strain 44, Cip, Clin, Gm, Rif, Dox
[7] = Strain 45, Cip, Clin, Gm, Rif, Dox, Fos
[8] = Strain 50, Cip, Clin, Gm, Rif, Dox

CCC[C@@H]1C[C@@H](C(=O)N[C@@H]([C@H]2O[C@H](SC)[C@H](O)[C@@H](O)[C@H]2O)[C@H](C)Cl)N(C)C1 [Clindamycin, clindamycin]
16 µg/mL: MIC [2, 4]
>64 µg/mL: MIC ([1]; Strain 52 VISA) | MIC Range ([1]; VISA (2) Met-R)
64 µg/mL: MIC ([2]; Strain 10, Cip, Clin, Gm) | MIC ([2]; Strain 20, Cip, Clin, Gm) | MIC ([2]; Strain 25, Cip, Clin, Gm) | MIC ([2]; Strain 26, Cip, Clin, Fos, Gm) | MIC ([2]; Strain 27, Cip, Clin, Fos, Gm) | MIC [2, 5] | MIC ([2]; Strain 35, Cip, Clin, Gm) | MIC ([2]; Strain 36, Cip, Clin, Fos) | MIC ([2]; Strain 37, Cip, Clin, Fos, Gm) | MIC ([2]; Strain 39, Cip, Clin, Fos, Gm) | MIC ([2]; Strain 41, Cip, Clin) | MIC ([2]; Strain 42, Cip, Clin, Gm) | MIC ([2]; Strain 43, Cip, Clin, Gm) | MIC [2, 6] | MIC [2, 7] | MIC ([2]; Strain 46, Clin, Fos) | MIC ([2]; Strain 47, Cip, Clin, Gm) | MIC ([2]; Strain 48, Cip, Clin)
> 64 µg/mL: MIC [1, 3] | MIC ([2]; Strain 1, Cip, Clin, Gm) | MIC ([2]; Strain 2, Clin, Fos) | MIC ([2]; Strain 3, Cip, Clin, Gm) | MIC ([2]; Strain 5, Cip, Clin) | MIC ([2]; Strain 6, Clin, Gm) | MIC ([2]; Strain 8, Cip, Clin) | MIC ([2]; Strain 9, Cip, Clin, Gm) | MIC ([2]; Strain 11, Clin, Rif) | MIC ([2]; Strain 12, Cip, Clin) | MIC ([2]; Strain 13, Cip, Clin) | MIC ([2]; Strain 14, Clin, Cip) | MIC ([2]; Strain 15, Cip, Clin, Gm) | MIC ([2]; Strain 16, Cip, Clin) | MIC ([2]; Strain 17, Cip, Clin) | MIC ([2]; Strain 18, Cip, Clin, Gm) | MIC ([2]; Strain 19, Cip, Clin, Gm) | MIC ([2]; Strain 21, Cip, Clin, Gm) | MIC ([2]; Strain 22, Cip, Clin) | MIC ([2]; Strain 23, Cip, Clin, Gm) | MIC ([2]; Strain 24, Cip, Clin, Gm) | MIC ([2]; Strain 28, Cip, Clin, Gm) | MIC ([2]; Strain 29, Clin, Fos) | MIC ([2]; Strain 31, Cip, Clin, Fox, Gm) | MIC ([2]; Strain 33, Cip, Clin, Gm) | MIC ([2]; Strain 34, Cip, Clin, Gm) | MIC ([2]; Strain 40, Cip, Clin, Gm) | MIC [2, 8] | MIC50 ([2]; S. aureus (50) Met-R) | MIC90 ([2]; S. aureus (50) Met-R)
8%: % susceptible at breakpoint ([2]; S. aureus (50) Met-R)
≤ 0.06 µg/mL: MIC ([2]; Strain 4, Cip, Gm) | MIC ([2]; Strain 7, Cip, Gm) | MIC ([2]; Strain 38, Cip, Gm) | MIC ([2]; Strain 49, Cip, Gm)

O=C(N[C@H](CO)[C@H](O)c1ccc([N+](=O)[O-])cc1)C(Cl)Cl [Cloramphenicol, cloramphenicol]
66%: % susceptible at breakpoint ([2]; S. aureus (50) Met-R)
64 µg/mL: MIC ([2]; Strain 2, Clin, Fos) | MIC ([2]; Strain 5, Cip, Clin) | MIC ([2]; Strain 6, Clin, Gm) | MIC ([2]; Strain 8, Cip, Clin) | MIC ([2]; Strain 11, Clin, Rif) | MIC ([2]; Strain 12, Cip, Clin) | MIC ([2]; Strain 18, Cip, Clin, Gm) | MIC ([2]; Strain 20, Cip, Clin, Gm) | MIC ([2]; Strain 21, Cip, Clin, Gm) | MIC ([2]; Strain 23, Cip, Clin, Gm) | MIC ([2]; Strain 24, Cip, Clin, Gm) | MIC ([2]; Strain 28, Cip, Clin, Gm) | MIC [2, 5] | MIC ([2]; Strain 33, Cip, Clin, Gm) | MIC ([2]; Strain 34, Cip, Clin, Gm) | MIC ([2]; Strain 48, Cip, Clin) | MIC [2, 8] | MIC90 ([2]; S. aureus (50) Met-R)
100%: % susceptible at breakpoint ([1]; VISA (2) Met-R, NCCLS (1999) breakpoints)
4 to 64 µg/mL: MIC Range ([2]; S. aureus (50) Met-R)
4 µg/mL: MIC ([2]; Strain 1, Cip, Clin, Gm) | MIC ([2]; Strain 3, Cip, Clin, Gm) | MIC ([2]; Strain 4, Cip, Gm) | MIC ([2]; Strain 10, Cip, Clin, Gm)
8 µg/mL: MIC [1, 3] | MIC ([1]; Strain 52 VISA) | MIC Range ([1]; VISA (2) Met-R) | MIC ([2]; Strain 7, Cip, Gm) | MIC ([2]; Strain 9, Cip, Clin, Gm) | MIC ([2]; Strain 13, Cip, Clin) | MIC ([2]; Strain 14, Clin, Cip) | MIC ([2]; Strain 15, Cip, Clin, Gm) | MIC ([2]; Strain 16, Cip, Clin) | MIC ([2]; Strain 17, Cip, Clin) | MIC ([2]; Strain 19, Cip, Clin, Gm) | MIC ([2]; Strain 22, Cip, Clin) | MIC ([2]; Strain 25, Cip, Clin, Gm) | MIC ([2]; Strain 26, Cip, Clin, Fos, Gm) | MIC ([2]; Strain 27, Cip, Clin, Fos, Gm) | MIC ([2]; Strain 29, Clin, Fos) | MIC [2, 4] | MIC ([2]; Strain 31, Cip, Clin, Fox, Gm) | MIC ([2]; Strain 35, Cip, Clin, Gm) | MIC ([2]; Strain 36, Cip, Clin, Fos) | MIC ([2]; Strain 37, Cip, Clin, Fos, Gm) | MIC ([2]; Strain 38, Cip, Gm) | MIC ([2]; Strain 39, Cip, Clin, Fos, Gm) | MIC ([2]; Strain 40, Cip, Clin, Gm) | MIC ([2]; Strain 41, Cip, Clin) | MIC ([2]; Strain 42, Cip, Clin, Gm) | MIC ([2]; Strain 43, Cip, Clin, Gm) | MIC [2, 6] | MIC [2, 7] | MIC ([2]; Strain 46, Clin, Fos) | MIC ([2]; Strain 47, Cip, Clin, Gm) | MIC ([2]; Strain 49, Cip, Gm) | MIC50 ([2]; S. aureus (50) Met-R)
